Data reported in PMC10515483, “Structure–Reactivity Studies of 2-Sulfonylpyrimidines Allow Selective Protein Arylation” (Bioconjugate Chemistry, 2023).

Key:
p53-Y220C = target: T1, p53-Y220C (Homo sapiens, UniProt P04637, M133L/N239Y/N268D/V203A/Y220C); experiment: Differential scanning fluorimetry (DSF); assay type: binding; conditions: 100 μM compound; 8 µM p53-Y220C; read-out: Protein thermal stability ΔTm
T1 construct: (residues 94-312); 6xHis/lipoyl domain/TEV protease cleavage site (N, cleaved yes); made in house; host or cells: E. coli C41
Source text: (§1) We also probed the general effect of 2-SPs on protein stability by using differential scanning fluorimetry (DSF). […] Mutants of the 25 kDa DNA-binding domain of the tumor suppressor p53 are notorious for their reduced thermal stability and denaturation/aggregation propensity.[37] The 56 kDa armadillo domain (ARD) of β-catenin mediates canonical Wnt signaling and plays a central role in embryogenesis and tissue homeostasis.[38] FGE (37 kDa) is the only known activator of human sulfatases, and its stability is susceptible to modification of its cysteines.[39] […]
described.7 Briefly, the N-terminal fusion protein (6xHis/lipoyl domain/TEV protease cleavage site) was overexpressed using E. coli C41 cells in 2xTY medium at 20°C for 16 h and purified using standard Ni-affinity chromatography protocols. […]
was further purified using a Heparin column. Finally, gel filtration chromatography was performed using a Superdex 75 16/60 preparative gel filtration column (GE Healthcare) in a 25 mM KPi (pH 7.2), 150 […]
mM NaCl, and 1 mM TCEP buffer. […]
gel electrophoresis and ESI-MS. […]

[1] = Solubility in KPi buffer by NMR with TMSP internal standard; conditions: 50 mM KPi aqueous buffer, pH 7, aqueous with cosolvent or surfactant or cyclodextrin, kinetic from dmso stock
Description: Stability and solubility assays
transferred to the NMR instrument for acquisition. 1H spectra (16 scans) were recorded every 10 minutes under water suppression conditions. Following acquisition, spectra were analysed using
TopSpin. Normalised integrations of the pyrimidine aromatic 1H signals in the starting material and
product were plotted as a function of time (s), using the TMSP peak as standard for integral
calibration/normalisation and monitoring of compound solubility, allowing extraction of pseudo first
order reaction rate constants (k’). Second order rate constants (k) were back calculated from the ratio
of the pseudo first counterparts and the concentration of thiol in solution.
was confirmed by formation of a single S-arylated product (characteristic 2-alkylthioether signals),
concomitant with formation of the sulfinic acid by -product (leaving group). Hydrolytic stability
assessment was performed at pH 7.0 and pH 8.2 in a similar manner, in the absence of thiol.
Chemoselectivity. Similarly, but replacing GSH by other amino acids , reference 2-
methylsulfonylpyrimidine 4q in 50 mM KPi (pH 8.2) was incubated with 10 equivalents of either Boc-
Lys-OH, L-ser-OMe, N-Ac-Tyr-OH or Proline were used.

[2] = GSH arylation rate constants (NMR; UV-vis for fast warheads); assay type: physicochemical; conditions: for k: Table S8, rate constants obtained at pH = 7; for k/kref / ΔΔG≠1exp: relative to 4q; for ΔΔG≠1exp: via -RTln(k/kref)
Outline: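 Second-order rate constants k for GSH arylation derived from pseudo-first-order k′ (warhead:GSH 1:10), by normalized NMR integration of the disappearing warhead signal over 6 h; TMSP internal standard. KPi buffer with 5% d6-DMSO, pH 7.0 and 6.5, 20 °C; UV–vis used for fast warheads. Mean of ≥2 independent runs.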

FGE-C341S = target: T2, FGE-C341S (Homo sapiens, UniProt Q8NBK3, C341S); experiment: Differential scanning fluorimetry (DSF); assay type: binding; conditions: 100 μM compound; 10 µM FGE; read-out: Protein thermal stability ΔTm
T2 construct: His7 (C); made in house; host or cells: High Five insect cells (baculovirus, pAcGP67B-His7)
T2 sequence (Q8NBK3 34-374 C341S): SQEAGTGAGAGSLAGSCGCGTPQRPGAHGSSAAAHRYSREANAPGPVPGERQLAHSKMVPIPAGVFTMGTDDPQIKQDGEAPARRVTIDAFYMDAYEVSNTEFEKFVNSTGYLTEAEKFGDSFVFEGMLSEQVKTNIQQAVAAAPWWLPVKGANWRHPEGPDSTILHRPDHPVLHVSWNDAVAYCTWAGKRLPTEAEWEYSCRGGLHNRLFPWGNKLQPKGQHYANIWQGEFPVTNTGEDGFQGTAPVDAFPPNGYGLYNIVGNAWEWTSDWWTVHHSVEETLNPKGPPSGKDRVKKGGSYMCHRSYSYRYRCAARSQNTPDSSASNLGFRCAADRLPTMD
Source text: as §1
The cloning of human FGE-WT cDNA into baculoviral transfer vector pAcGP67B-His7 and the generation of the recombinant virus (in Sf9 cells) for expression of C-terminally His-tagged recombinant human FGE in High Five insect cells have been […]
were generated by site -directed PCR mutagenesis using pAcGP67B-FGE-WT-His7 as template and the […]
-3’. All expression plasmids were verified by sequencing of the entire coding region to exclude any undesired PCR -derived errors. The purification method was essentially performed as described in Peng et al., with one modification. The size exclusion […]
chromatography (His -trap) step foll owed directly by a second step purification using the ion -exchange column chromatography (Resource -Q). […]

[3] = pH 6.5, by NMR, KPi buffer, 5% DMSO-d6
[4] = pH 6.5, measured by UV titrations
[5] = pH 7.0, measured by UV titrations
[6] = pH 7.0, ratio to rate constant of 4q, acceleration (+) or deceleration (-)
[7] = pH 7.0, by NMR, KPi buffer, 5% DMSO-d6

Compound | ΔTm at 100 µM (p53-Y220C) [°C] | solubility [1] [µM] | k [2] [M⁻¹ s⁻¹] | rate constant (k) for the reaction with GSH [2, 3] [M⁻¹ s⁻¹] | rate constant (k) for the reaction with GSH [2, 4] [M⁻¹ s⁻¹] | rate constant (k) for the reaction with GSH [2, 5] [M⁻¹ s⁻¹] | k change (vs ref) ([2]; pH 7.0, ratio to 4q, from value measured by UV titrations (footnote a)) | k/kref [2] | ΔΔG≠1exp [2] [kcal/mol] | ΔTm at 100 µM (FGE-C341S) [°C] | k change (vs ref) [2, 6] | rate constant (k) for the reaction with GSH [2, 7] [M⁻¹ s⁻¹]
COC(=O)c1ccnc(S(C)(=O)=O)n1 [4k] | 0.4 | ≥ 2000 | 2.8 | 0.26 ± 0.045 | 0.37 ± 0.063 | 2.8 ± 1.1 | +112 fold | 112 | -2.87 | -0.4 ± 0.3 |  | 
CS(=O)(=O)c1ncc(C(=O)O)cn1 [4v] | 3 | ≥ 2000 | 30 |  | 6.7 ± 3.1 | 30 ± 3.2 |  | 1200 | -4.3 | -0.4 ± 0.3 | +1,200 fold | 
CS(=O)(=O)c1ncc(-c2ccccc2)cn1 [4p] | 0.2 | < 2000 |  | 0.01 ± 0.005 |  |  |  |  |  | -0.2 ± 0.3 | -2 fold | 0.012 ± 0.0078
O=S(=O)(CC(F)(F)F)c1ncccn1 [5e] | 1.8 | ≥ 2000 | 0.23 | 0.04 ± 0.005 |  |  |  | 9.2 | -1.29 | -0.6 | +9 fold | 0.23 ± 0.05
